Values joined by “and” are separate entries in the source; they are usually repeats but may differ in a detail not shown here. Identical values can stand only once.
Key:
MTT cytotoxicity assay [1] = format: cell-based; conditions: human, A549 cells, EGFR wild-type, n=3
Description: The cytotoxicity of the tested compounds against selected cell lines was measured by 3-(4,5-dimethylthiazol-2-yl)-2,5-diphenl tetrazolium bromide (MTT) assay. Briefly, cells (3000 per well) were plated in 96-well plate for 24 h and 100 µL of medium with di fferent concentrations of the tested compounds was added to each well for 48 h. Then 20 μL of MTT (5 mg/mL, Sigma-Aldrich) was added and incubate at 37 ℃ for 4 h, resulting the formation of the formazan crystal. The formed formazan crystal was dissolved with 150 μL of DMSO after removing the medium. The absorbance of each well was measured at 570 nm wavelength. The inhibition rate was calculated by the formula: (OD control group - OD treated group)/OD control group ×100%. The experiments were repeated at least three times. The IC50 values were determined by plotting a log (inhibitor) vs. normalized response (Variable slope) dose-response curve generated using GraphPad Prism […]
Immunohistochemistry staining
The obtained tumor tissues were sectioned into about 3 µm thickness layers. The general protocol of immunohistochemistry (IHC) was applied for the experiment. Firstly, the tissue slices were deparaffinized in xylene before immersion in 100% ethanol, followed by antigen repair. […]

MTT cytotoxicity assay [2] = format: cell-based; conditions: human, HeLa cells, EGFR wild-type, n=3
EGFR wild-type = target: T1, EGFR wild-type (Homo sapiens, UniProt P00533); test: Fluorescence turn-on response / titration of HX103 with recombinant EGFR;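 for Fluorescence intensity at 570 nm: 100% is HX103 fluorescence with wild-type EGFR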; format: binding; conditions: for Fluorescence intensity at 570 nm / Fluorescence response of HX103 to EGFR wild-type: n=1-3; for Fluorescence intensity, Wild-type: Fig. 2c; for Fluorescence response of HX103 to EGFR wild-type: Supplementary Fig. 2f
T1 construct: Recombinant human EGFR (amino acids 668–1210, #PR7295B); purchased Thermo Fisher PR7295B
Description: (§1) (d) Fluorescence spectra change of HX103 (5 µ M) with increasing concentration of EGFR L858R
(§2) (e) Fluorescence spectra change of HX103 (5 µ M ) with
(§3) increasing concentration of EGFR 19del (0 to 6 µM) in PBS buffer. (f) Titration curve of HX103
(§4) (5 µM) with increasing concentration of EGFRs (0 to 6 µM). The apparent binding affinity (Kd)
(§5) The fluorescence titration curve was fitted on one -
(§6) site specific binding model. I and I0 represent the intensities of HX103 at 570 nm in the presence
(§7) and absence of protein. Data represent average val ues ± SD, n = 3 independent experiments per
(§8) solution was diluted in sodium phosphate buffer (PBS, 1 M, pH=7.4) to obtain the desired final
(§9) Data analysis：The obtained fluorescence intensity at 570 nm (Excitation wavelength was 440
(§10) was set at 100% to normalized that of the remaining samples.

MTT cytotoxicity assay [3] = format: cell-based; conditions: human, A431 cells, EGFR wild-type, n=3
[4] = Measurement of optical properties; format: physicochemical; conditions: for Fluorescence intensity, HX103 only: Fig. 2a
Description: page 66: […] Measurement of optical properties In the study, UV-vis spectra of the probes were determined on a Hitachi U-2910. The fluorescence spectroscopic experiments were performed on BioTek microplate reader and Horiba Jobin Yvon - Edison Fluoromax-4. Absolute fluorescence quantum efficiency was measured by an absolute quantum yield spectrometer (Horiba Jobin Yvon-Edison Fluoromax-4). The tested probe was dissolved in dimethyl sulfoxide (DMSO) to obtain stock solutions (10 mM). The prepared stock […] concentration solution, containing 0.1% (v/v) DMSO as a cosolvent. For the in vitro kinase […] The excitation and emission fluorescence spectra of the solution before/after addition o f different concentration […] Data analysis:The obtained fluorescence intensity at 570 nm (Excitation wavelength was 440 nm) in each sample was normalized by using the fluorescence intensity of HX103 in the presence of EGFR. Specifically, the fluorescence intensity of HX103 in the presence of EGFR wild-type […] 66

EGFR 19del = target: T2, EGFR 19del (Homo sapiens, UniProt P00533, DEL746-750); test: Kinase inhibition assay (fluorescent mobility-shift assay); format: biochemical; design: Kinase activity: unit not given here; conditions: for Kinase activity: 19del, n=1-3
T2 construct: purchased Thermo Fisher PV6179

EGFR L858R = target: T3, EGFR L858R (Homo sapiens, UniProt P00533, L858R); test: Fluorescence turn-on response / titration of HX103 with recombinant EGFR;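 for Fluorescence intensity at 570 nm: 100% is HX103 fluorescence with wild-type EGFR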;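 for all read-outs here: fluorescence of the probe measured with recombinant EGFR L858R in PBS carrying 0.1% DMSO, excitation at 440 nm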; format: binding; conditions: for Fluorescence intensity, L858R: Fig. 2c; for Fluorescence response of HX103 to EGFR L858R: Supplementary Fig. 2f
T3 construct: EGFR L858R (amino acids 668–1210, #PR7447A); purchased Thermo Fisher PR7447A
Description: as §1, §2, §3, §4, §5, §6, §7, §8, §9, §10

[5] = HX103 5 µM in PBS buffer (0.1% DMSO), 570 nm
[6] = HX103 5 µM, EGFR 0 to 6 µM in PBS, one-site specific binding model, read-out: apparent binding affinity (Kd)

Compound: COc1cc2c(Nc3ccc(F)c(Cl)c3)ncnc2cc1OCCCNc1ccc(S(=O)(=O)N(C)C)c2nonc12 [HX103]
- IC50 at 48 h (MTT cytotoxicity assay [1]): 18000 nM
- IC50 at 48 h (MTT cytotoxicity assay [2]): > 100000 nM
- Fluorescence intensity at 570 nm (EGFR wild-type; Fig. 2b, EGFR+Afa.+HX103): 40.8352 and 40.5015 and 39.6477
- Fluorescence intensity at 570 nm (EGFR wild-type; Fig. 2b, EGFR+Compound 4+HX103): 34.8404 and 34.012 and 33.2139
- Fluorescence intensity at 570 nm (EGFR wild-type; Fig. 2b, EGFR+Gef.+HX103): 52.1782 and 56.1359 and 43.6715
- Fluorescence intensity at 570 nm (EGFR wild-type; Fig. 2b, EGFR+HX103): 102.993 and 106.909 and 90.0974
- Fluorescence intensity, Wild-type (EGFR wild-type; wavelength 666 nm): 3857.08
- Fluorescence intensity, Wild-type (EGFR wild-type; wavelength 669 nm): 3668.59
- Fluorescence intensity, Wild-type (EGFR wild-type; wavelength 671 nm): 3481.17
- Fluorescence intensity, Wild-type (EGFR wild-type; wavelength 673 nm): 3297.98
- Fluorescence intensity, Wild-type (EGFR wild-type; wavelength 676 nm): 3120.62
- Fluorescence intensity, Wild-type (EGFR wild-type; wavelength 678 nm): 2950.6
- Fluorescence intensity, Wild-type (EGFR wild-type; wavelength 681 nm): 2789.44
- Fluorescence intensity, Wild-type (EGFR wild-type; wavelength 683 nm): 2638.8
- Fluorescence intensity, Wild-type (EGFR wild-type; wavelength 686 nm): 2500.58
- Fluorescence intensity, Wild-type (EGFR wild-type; wavelength 688 nm): 2376.72
- Fluorescence intensity, Wild-type (EGFR wild-type; wavelength 690 nm): 2269.12
- Fluorescence intensity, Wild-type (EGFR wild-type; wavelength 693 nm): 2178.16
- Fluorescence intensity, Wild-type (EGFR wild-type; wavelength 695 nm): 2100.14
- Fluorescence intensity, Wild-type (EGFR wild-type; wavelength 698 nm): 2030.74
- Fluorescence intensity, Wild-type (EGFR wild-type; wavelength 700 nm): 1965.66
- Fluorescence intensity at 570 nm (EGFR wild-type; Fig. 2d, HX103 with EGFR WT): 95.7649 and 96.5955 and 107.639
- fluorescence turn-on response (EGFR wild-type; [5]): high fluorescence
- Kd (EGFR wild-type; [6]): 2700 ± 400 nM
- Fluorescence response of HX103 to EGFR wild-type (EGFR wild-type; EGFR 0.1 µM): 1.163 and 1.321 and 1.006
- Fluorescence response of HX103 to EGFR wild-type (EGFR wild-type; EGFR 0.5 µM): 2.913 and 3.724 and 2.102
- Fluorescence response of HX103 to EGFR wild-type (EGFR wild-type; EGFR 5 µM): 10.0441 and 11.0703 and 9.62
- Fluorescence response of HX103 to EGFR wild-type (EGFR wild-type; EGFR 6 µM): 11.047 and 11.7068 and 10.3878
- IC50 at 48 h (MTT cytotoxicity assay [3]): 26000 nM
- Stokes shift [4]: 130 nm
- excitation maximum [4]: 340/440
- absolute quantum yield ([4]; DMSO): 42.4%
- maximum UV absorption ([4]; DMSO): 342/438
- Fluorescence intensity, HX103 only ([4]; wavelength 666 nm): 328.882
- Fluorescence intensity, HX103 only ([4]; wavelength 669 nm): 313.191
- Fluorescence intensity, HX103 only ([4]; wavelength 671 nm): 290.291
- Fluorescence intensity, HX103 only ([4]; wavelength 673 nm): 261.813
- Fluorescence intensity, HX103 only ([4]; wavelength 676 nm): 236.251
- Fluorescence intensity, HX103 only ([4]; wavelength 678 nm): 222.471
- Fluorescence intensity, HX103 only ([4]; wavelength 681 nm): 229.28
- Fluorescence intensity, HX103 only ([4]; wavelength 683 nm): 261.184
- Fluorescence intensity, HX103 only ([4]; wavelength 686 nm): 315.405
- Fluorescence intensity, HX103 only ([4]; wavelength 688 nm): 388.462
- Fluorescence intensity, HX103 only ([4]; wavelength 690 nm): 476.875
- Fluorescence intensity, HX103 only ([4]; wavelength 693 nm): 577.288
- Fluorescence intensity, HX103 only ([4]; wavelength 695 nm): 686.662
- Fluorescence intensity, HX103 only ([4]; wavelength 698 nm): 802.01
- Fluorescence intensity, HX103 only ([4]; wavelength 700 nm): 920.343
- Fluorescence intensity at 570 nm ([4]; Fig. 2b, HX103 alone, n=1-3): 8.2448 and 8.538 and 6.65
- absolute quantum yield ([4]; PBS): 5.8%
- fluorescence emission wavelength ([4]; excitation at 440 nm): 570 nm
- Kinase activity (EGFR 19del; Log [HX103 (M)] -7.5): 4.826 and 8.074 and 4.95
- Kinase activity (EGFR 19del; Log [HX103 (M)] -8): 14.14 and 14.3 and 14.2
- Kinase activity (EGFR 19del; Log [HX103 (M)] -8.5): 33.15 and 25.38 and 27.26
- Kinase activity (EGFR 19del; Log [HX103 (M)] -9): 51.95 and 59.57 and 58.76
- IC50 (EGFR 19del; n = 3): 1.3 nM
- Fluorescence intensity, L858R (EGFR L858R; wavelength 666 nm): 4655.85
- Fluorescence intensity, L858R (EGFR L858R; wavelength 669 nm): 4299.18
- Fluorescence intensity, L858R (EGFR L858R; wavelength 671 nm): 3977.08
- Fluorescence intensity, L858R (EGFR L858R; wavelength 673 nm): 3702.64
- Fluorescence intensity, L858R (EGFR L858R; wavelength 676 nm): 3456.05
- Fluorescence intensity, L858R (EGFR L858R; wavelength 678 nm): 3215.71
- Fluorescence intensity, L858R (EGFR L858R; wavelength 681 nm): 2960.24
- Fluorescence intensity, L858R (EGFR L858R; wavelength 683 nm): 2683.28
- Fluorescence intensity, L858R (EGFR L858R; wavelength 686 nm): 2403.9
- Fluorescence intensity, L858R (EGFR L858R; wavelength 688 nm): 2143.64
- Fluorescence intensity, L858R (EGFR L858R; wavelength 690 nm): 1924.01
- Fluorescence intensity, L858R (EGFR L858R; wavelength 693 nm): 1757.52
- Fluorescence intensity, L858R (EGFR L858R; wavelength 695 nm): 1633.62
- Fluorescence intensity, L858R (EGFR L858R; wavelength 698 nm): 1538.11
- Fluorescence intensity, L858R (EGFR L858R; wavelength 700 nm): 1456.78
- Fluorescence intensity at 570 nm (EGFR L858R; Fig. 2d, HX103 with EGFR L858R, n=1-3): 94.4744 and 115.569 and 99.2784
- fluorescence turn-on response (EGFR L858R; [5]): high fluorescence
- Kd (EGFR L858R; [6]): 800 ± 300 nM
- Fluorescence response of HX103 to EGFR L858R (EGFR L858R; EGFR 1 µM, n=1-3): 6.4875 and 6.559 and 3.424
- Fluorescence response of HX103 to EGFR L858R (EGFR L858R; EGFR 2 µM, n=1-3): 8.6 and 6.836 and 4.376
- Fluorescence response of HX103 to EGFR L858R (EGFR L858R; EGFR 5 µM, n=1-3): 8.998 and 10.1242 and 7.156
- Fluorescence response of HX103 to EGFR L858R (EGFR L858R; EGFR 6 µM, n=1-3, 0 at EGFR 0): 9.745 and 11.2537 and 8.24
